Experimental data: patent US20090099158A1, “TETRAHYDROISOQUINOLINE COMPOUNDS AS MODULATORS OF THE HISTAMINE H3 RECEPTOR” (priority 2007, published 2009)

What was measured:
[1] = target: T1, cloned human H3 receptors (Homo sapiens, UniProt Q9Y5N1); assay: H3 Receptor Binding (Human); conditions: cloned human H3 receptors stably expressed in SK-N-MC cells; average of the results obtained
T1 construct: expressed in transfected cells; host or cells: SK-N-MC cells
Protocol: Binding of compounds to the cloned human H3 receptors, stably expressed in SK-N-MC cells, was performed as described by Barbier, A. J. et al. (Br. J. Pharmacol. 2004, 143(5), 649-661). Data for compounds tested in this assay are presented in Table 1 as an average of the results obtained.

human H3 receptor = target: T2, human H3 receptor (Homo sapiens, UniProt Q9Y5N1); assay: Cyclic AMP Accumulation (human H3 receptor); format: cell-based; conditions: SK-N-MC cells expressing a reporter construct and the human H3 receptor; average; read-out: Human pA2 (converted)
T2 construct: expressed in transfected cells; host or cells: SK-N-MC sublines with reporter construct
T2 sequence (Q9Y5N1 whole entry): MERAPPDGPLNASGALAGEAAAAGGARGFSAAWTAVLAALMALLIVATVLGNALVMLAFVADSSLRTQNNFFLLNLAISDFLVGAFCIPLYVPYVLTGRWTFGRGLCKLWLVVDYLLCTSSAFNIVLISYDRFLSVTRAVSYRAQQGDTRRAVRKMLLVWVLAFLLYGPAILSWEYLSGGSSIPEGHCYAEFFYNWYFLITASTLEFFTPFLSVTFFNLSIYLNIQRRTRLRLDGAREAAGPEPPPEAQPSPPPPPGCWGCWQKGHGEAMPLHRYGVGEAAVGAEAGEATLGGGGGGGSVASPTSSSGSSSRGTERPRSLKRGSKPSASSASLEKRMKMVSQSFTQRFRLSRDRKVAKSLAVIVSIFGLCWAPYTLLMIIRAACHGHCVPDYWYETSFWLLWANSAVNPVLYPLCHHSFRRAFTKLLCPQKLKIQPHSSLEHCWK
From the text: (§1) Sublines of SK-N-MC cells were created that expressed a reporter construct and either the human or rat H3 receptor. The pA2 values were obtained as described by Barbier et al. (2004). Data for compounds tested in these assays are presented in Table 3, as an average of the results obtained (NT=not tested).

Rat H3 [2] = target: T3, Rat H3 (Rattus norvegicus, UniProt Q9QYN8); assay: Cyclic AMP Accumulation (rat H3 receptor); format: cell-based; design: expressed in transfected cells; host or cells: SK-N-MC sublines with reporter construct; conditions: SK-N-MC cells expressing a reporter construct and the rat H3 receptor; average; read-out: Rat pA2 (converted)
T3 sequence (Q9QYN8 whole entry): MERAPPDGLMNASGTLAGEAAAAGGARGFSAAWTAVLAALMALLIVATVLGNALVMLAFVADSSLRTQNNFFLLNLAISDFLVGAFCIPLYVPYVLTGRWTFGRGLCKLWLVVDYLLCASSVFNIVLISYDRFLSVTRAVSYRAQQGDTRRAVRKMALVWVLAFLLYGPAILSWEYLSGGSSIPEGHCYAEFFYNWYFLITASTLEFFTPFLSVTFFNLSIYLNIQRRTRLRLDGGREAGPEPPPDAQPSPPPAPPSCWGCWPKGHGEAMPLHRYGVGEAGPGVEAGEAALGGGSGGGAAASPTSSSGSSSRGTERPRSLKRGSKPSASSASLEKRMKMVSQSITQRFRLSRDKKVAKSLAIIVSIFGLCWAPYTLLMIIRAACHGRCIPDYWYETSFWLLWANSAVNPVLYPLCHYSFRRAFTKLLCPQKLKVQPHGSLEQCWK
From the text: as §1

Rat H3 [3] = target: T3, Rat H3; assay: H3 Receptor Binding (Rat); design: A rat brain without cerebellum (Zivic Laboratories Inc., Pittsburgh, Pa.) was homogenized; tissue Zivic Laboratories Inc; host or cells: rat brain without cerebellum (membranes); conditions: rat brain (without cerebellum) membranes; 0.8 nM N-[3H]-α-methylhistamine, 60 min at 25° C.; IC50 converted to Ki; average
Protocol: A rat brain without cerebellum (Zivic Laboratories Inc., Pittsburgh, Pa.) was homogenized in 50 mM Tris-HCl/5 mM EDTA and centrifuged at 1,000 rpm for 5 min. The supernatant was removed and recentrifuged at 15,000 rpm for 30 min. Pellets were rehomogenized in 50 mM Tris/5 mM EDTA (pH 7.4). Membranes were incubated with 0.8 nM N-[^3H]-α-methylhistamine plus/minus test compounds for 60 min at 25° C. and harvested by rapid filtration over GF/C glass fiber filters (pretreated with 0.3% polyethylenimine) followed by four washes with buffer. Nonspecific binding was defined in the presence of 100 μM histamine. Inhibitory concentration (responsible for 50% inhibition of maximal effect, IC50) values were determined by a single site curve-fitting program (GraphPad, San Diego, Calif.) and converted to Ki values based on a N-[^3H]-α-methylhistamine dissociation constant (Kd) of 0.8 nM. Data for compounds tested in this assay are presented in Table 2 as an average of the results obtained.

T1 sequence (Q9Y5N1 whole entry): as the sequence (Q9Y5N1 whole entry) above

O=C(c1ccc2c(c1)CN(C(=O)c1ccccc1)CC2)N1CCCN(C2CCC2)CC1 [Example 36, [7-(4-Cyclobutyl-[1,4]diazepane-1-carbonyl)-3,4-dihydro-1H-isoquinolin-2-yl]-phenyl-methanone]
Ki [1]: 1 nM | Kb (human H3 receptor): 0.49 nM | Kb (Rat H3 [2]): 3.8 nM

CC(C)N1CCCN(C(=O)c2ccc3c(c2)CCNC3)CC1 [Example 5, (4-Isopropyl-[1,4]diazepan-1-yl)-(1,2,3,4-tetrahydro-isoquinolin-6-yl)-methanone]
Ki [1]: 3 nM | Kb (human H3 receptor): 1.55 nM | Kb (Rat H3 [2]): 15.8 nM

CC(C)N1CCN(C(=O)c2ccc3c(c2)CCN(Cc2ccc(Cl)cc2)C3)CC1 [Example 22, [2-(4-Chloro-benzyl)-1,2,3,4-tetrahydro-isoquinolin-6-yl]-(4-isoproplyl-piperazin-1-yl)-methanone]
Ki [1]: 5 nM | Kb (human H3 receptor): 10.5 nM | Kb (Rat H3 [2]): 30.9 nM

O=C(c1ccc2c(c1)CCN(C(=O)C1CCCCC1)C2)N1CCCN(C2CCC2)CC1 [Example 40, [6-(4-Cyclobutyl-[1,4]diazepane-1-carbonyl)-3,4-dihydro-1H-isoquinolin-2-yl]-cyclohexyl-methanone]
Ki [1]: 1 nM | Kb (human H3 receptor): 0.355 nM | Kb (Rat H3 [2]): 2.88 nM

O=C(c1ccc2c(c1)CCN(C(=O)C1CCCCC1)C2)N1CCN(C2CCC2)CC1 [Example 33, [6-(4-Cyclobutyl-piperazine-1-carbonyl)-3,4-dihydro-1H-isoquinolin-2-yl]-cyclohexyl-methanone]
Ki [1]: 8 nM | Ki (Rat H3 [3]): 123 nM | Kb (Rat H3 [2]): 13.8 nM

CCC(=O)N1CCc2cc(C(=O)N3CCC[C@H]3CN3CCCC3)ccc2C1 [Example 45, (S)-1-[6-(2-Pyrrolidin-1-ylmethyl-pyrrolidine-1-carbonyl)-3,4-dihydro-1H-isoquinolin-2-yl]-propan-1-one]
Ki [1]: 6 nM | Kb (human H3 receptor): 2.82 nM | Kb (Rat H3 [2]): 20.4 nM

O=C(c1ccc2c(c1)CN(Cc1ccccc1)CC2)N1CCN(C2CCC2)CC1 [Example 26, (2-Benzyl-1,2,3,4-tetrahydro-isoquinolin-7-yl)-(4-cyclobutyl-piperazin-1-yl)-methanone]
Ki [1]: 2 nM | Kb (human H3 receptor): 17.8 nM

CCC(=O)N1CCc2cc(C(=O)N3CCCN(C4CCC4)CC3)ccc2C1 [Example 139, 1-[6-(4-Cyclobutyl-[1,4]diazepane-1-carbonyl)-3,4-dihydro-1H-isoquinolin-2-yl]-propan-1-one]
Ki [1]: 1 nM | Ki (Rat H3 [3]): 7 nM

O=C(c1ccc2c(c1)CCN(C(=O)C1CCCC1)C2)N1CCN(C2CCC2)CC1 [Example 32, [6-(4-Cyclobutyl-piperazine-1-carbonyl)-3,4-dihydro-1H-isoquinolin-2-yl]-cyclopentyl-methanone]
Ki [1]: 5 nM | Ki (Rat H3 [3]): 135 nM | Kb (human H3 receptor): 8.51 nM | Kb (Rat H3 [2]): 15.1 nM

O=C(c1ccc2c(c1)CCN(C(=O)C1CCOC1)C2)N1CCCN(C2CCC2)CC1 (stereo not drawn) [Example 137, [6-(4-Cyclobutyl-[1,4]diazepane-1-carbonyl)-3,4-dihydro-1H-isoquinolin-2-yl]-(tetrahydro-furan-3-yl)-methanone]
Ki [1]: 1 nM | Ki (Rat H3 [3]): 8 nM

CC(C)N1CCc2cc(C(=O)N3CCCN(C4CCC4)CC3)ccc2C1 [Example 177, (4-Cyclobutyl-[1,4]diazepan-1-yl)-(2-isopropyl-1,2,3,4-tetrahydro-isoquinolin-6-yl)-methanone]
Ki [1]: 1 nM | Ki (Rat H3 [3]): 1 nM

O=C(c1ccc2c(c1)CCN(C(=O)C1CCCC1)C2)N1CCCN(C2CCC2)CC1 [Example 39, [6-(4-Cyclobutyl-[1,4]diazepane-1-carbonyl)-3,4-dihydro-1H-isoquinolin-2-yl]-cyclopentyl-methanone]
Ki [1]: 1 nM | Kb (human H3 receptor): 0.38 nM | Kb (Rat H3 [2]): 3.02 nM

O=C(c1ccc2c(c1)CCN(C(=O)c1ccc(F)cc1F)C2)N1CCCN(C2CCC2)CC1 [Example 144, [6-(4-Cyclobutyl-[1,4]diazepane-1-carbonyl)-3,4-dihydro-1H-isoquinolin-2-yl]-(2,4-difluoro-phenyl)-methanone]
Ki [1]: 1 nM | Ki (Rat H3 [3]): 32 nM

O=C(c1ccc2c(c1)CCN(C1CCC1)C2)N1CCN2CCCCC2C1 (stereo not drawn) [Example 187, (2-Cyclobutyl-1,2,3,4-tetrahydro-isoquinolin-6-yl)-(octahydro-pyrido[1,2-a]pyrazin-2-yl)-methanone]
Ki [1]: 3 nM | Ki (Rat H3 [3]): 30 nM

O=C(c1ccc2c(c1)CCN(C(=O)c1ccccc1)C2)N1CCCN(C2CCC2)CC1 [Example 35, [6-(4-Cyclobutyl-[1,4]diazepane-1-carbonyl)-3,4-dihydro-1H-isoquinolin-2-yl]-phenyl-methanone]
Ki [1]: 1 nM | Kb (human H3 receptor): 0.513 nM | Kb (Rat H3 [2]): 2.34 nM

O=C(c1ccc2c(c1)CCN(Cc1ccccc1)C2)N1CCN(C2CCC2)CC1 [Example 18, (2-Benzyl-1,2,3,4-tetrahydro-isoquinolin-6-yl)-(4-cyclobutyl-piperazin-1-yl)-methanone]
Ki [1]: 5 nM | Ki (Rat H3 [3]): 2 nM | Kb (human H3 receptor): 1.29 nM | Kb (Rat H3 [2]): 2.4 nM

CCCC(=O)N1CCc2cc(C(=O)N3CCC[C@H]3CN3CCCC3)ccc2C1 [Example 46, (S)-1-[6-(2-Pyrrolidin-1-ylmethyl-pyrrolidine-1-carbonyl)-3,4-dihydro-1H-isoquinolin-2-yl]-butan-1-one]
Ki [1]: 4 nM | Kb (human H3 receptor): 2.82 nM | Kb (Rat H3 [2]): 18.2 nM

O=C(c1ccc2c(c1)CCN(C(=O)c1cccc(Cl)c1)C2)N1CCCN(C2CCC2)CC1 [Example 135, (3-Chloro-phenyl)-[6-(4-cyclobutyl-[1,4]diazepane-1-carbonyl)-3,4-dihydro-1H-isoquinolin-2-yl]-methanone]
Ki [1]: 1 nM | Ki (Rat H3 [3]): 11 nM

O=C(c1ccc2c(c1)CCN(C(=O)c1ccc(Cl)cc1)C2)N1CCCN(C2CCC2)CC1 [Example 133, (4-Chloro-phenyl)-[6-(4-cyclobutyl-[1,4]diazepane-1-carbonyl)-3,4-dihydro-1H-isoquinolin-2-yl]-methanone]
Ki [1]: 2 nM | Ki (Rat H3 [3]): 18 nM

CC(C)N1CCCN(C(=O)c2ccc3c(c2)CCN(Cc2ccccc2)C3)CC1 [Example 11, (2-Benzyl-1,2,3,4-tetrahydro-isoquinolin-6-yl)-(4-isopropyl-[1,4]diazepan-1-yl)-methanone]
Ki [1]: 1 nM | Kb (human H3 receptor): 0.661 nM | Kb (Rat H3 [2]): 4.47 nM

O=C(c1ccc2c(c1)CCN(Cc1ccsc1)C2)N1CCN(C2CCC2)CC1 [Example 15, (4-Cyclobutyl-piperazin-1-yl)-(2-thiophen-3-ylmethyl-1,2,3,4-tetrahydro-isoquinolin-6-yl)-methanone]
Ki [1]: 4 nM | Kb (human H3 receptor): 1.05 nM

Cc1ccc(C(=O)N2CCc3cc(C(=O)N4CCCN(C5CCC5)CC4)ccc3C2)cc1F [Example 142, [6-(4-Cyclobutyl-[1,4]diazepane-1-carbonyl)-3,4-dihydro-1H-isoquinolin-2-yl]-(3-fluoro-4-methyl-phenyl)-methanone]
Ki [1]: 1 nM | Ki (Rat H3 [3]): 28 nM

O=C(c1ccc2c(c1)CCN(C(=O)c1ccccc1F)C2)N1CCCN(C2CCC2)CC1 [Example 136, [6-(4-Cyclobutyl-[1,4]diazepane-1-carbonyl)-3,4-dihydro-1H-isoquinolin-2-yl]-(2-fluoro-phenyl)-methanone]
Ki [1]: 1 nM | Ki (Rat H3 [3]): 16 nM
